Assay results reported in PMC10574475, “Development and Validation of a UHPLC–MS/MS Method for the Quantification of a Novel PYGB Inhibitor in Plasma: Application to Pharmacokinetic Studies” (Molecules, 2023).
Entries after “also recorded” stand apart in the source; their conditions may differ. Like-named read-outs stand apart in the source and are kept apart here.

Key:
[1] = Plasma pharmacokinetics after intravenous administration (UHPLC–MS/MS); format: in vivo, SD rats; conditions: rat plasma; for AUC(0-inf) / AUC(0-t) / Cmax / Vd / clearance / half-life: both sexes, SD
Protocol: 50 μL of the plasma to be tested was aspirated precisely and placed in a 1.5 mL centrifuge tube. Then 5 μL of internal standard working solution and 150 μL of methanol were added sequentially to the centrifuge tube, and the tube was vortexed for 60 s and centrifuged at 6147× g for 10 min. Finally, 100 μL of supernatant was taken and added to the injection vial for quantitative analysis by UHPLC–MS/MS.
(§1) Liquid chromatography conditions. UHPLC–MS/MS analyses were performed on an Agilent 1260 ultra-high performance liquid chromatograph (Agilent Technologies Co., Ltd., Santa Clara, CA, USA) and a QTRAP 5500 triple quadrupole tandem mass spectrometer (AB Sciex Pte. Ltd., Framingham, MA, USA). An ACQUITY UPLC BEH C18 column (2.1 × 50 mm, 1.7 µm) was used at […] with a flow rate of 0.3 mL/min and an injection volume of 2 µL. The analysis time was 5 min using an isocratic elution procedure of methanol and water (4:1, v/v).
In the plasma pharmacokinetic study, 30 healthy SD rats (half male and half female) were selected and randomly divided into 3 groups of 10 rats each. Three groups of SD rats were injected with a single dose of compound 1 (0.8 mg/kg, 1.6 mg/kg, 3.2 mg/kg) by tail vein, respectively. At 0.084, 0.25, 1, 2, 4, 6, 8, 12, 24 h after administration, 0.5 mL of blood was collected from the fundus venosus in heparin-anticoagulated tubes, and the plasma was separated by centrifugation at 6149× g for 10 min, and then placed in 1.5 mL Eppendorf tubes and stored in the refrigerator at −80 °C for measurement.
(§2) The data was processed using Origin 2021 to plot the drug concentration–time curve in plasma, and DAS 2.0 software was used to calculate the pharmacokinetic parameters by the […] statistical moment method, and the results of the experiments were expressed as mean ± standard deviation. Differences between groups were analyzed using SPSS 20.0, with p < 0.05 indicating statistical significance.

[2] = Brain tissue distribution after intravenous administration; format: in vivo, SD rats; conditions: rat; for brain tissue concentration: after injection
Protocol: Brain tissue homogenate samples for analysis were prepared by adding 9 volumes of homogenate solution (MeOH/15 mMPBS (1: 2, v/v)) to one volume of brain homogenate and diluting it 10-fold. Firstly, an aliquot of 40 μL of the brain homogenate sample to be tested (diluted sample), calibration standards, QC and diluted QC, a zero sample (with internal standard) and a blank sample (without internal standard) were added to the 96-well plate. Then, each sample (except blank samples) was quenched with 400 μL of IS1 (blank samples were quenched with 400 μL of acetonitrile), and the mixture was vortexed at 800 rpm for 10 min, followed by centrifugation at 3220× g at 4 °C for 15 min. Finally, a 50 μL aliquot of the supernatant was transferred to another clean 96-well plate and centrifuged at 3220× g for 15 min at 4 °C, then injected directly into the sample for UHPLC–MS/MS analysis.
as §1
In the preliminary brain tissue distribution study, 18 healthy male SD rats were injected with 3.2 mg/kg of compound 1 intravenously into the tail, and the animals were euthanized by CO2 inhalation at 0.25, 2 and 8 h after the administration of compound 1, respectively. Blood and brain tissue were then collected separately from each animal. Brain tissue was homogenized on wet ice using homogenizing buffer (MeOH/15 mM PBS = 1/2) at a ratio of 1:9 (1 g tissue to 9 mL buffer). The tissue homogenate was divided into two parts, 0.8 mL was used for analysis and the rest was discarded.
as §2

[3] = Stability of compound 1 in rat plasma under different storage conditions; format: in vitro ADME
Protocol: Stability was assessed under the four conditions (storage at room temperature for 12 h, […] for 24 h, refrigerator storage at −20 °C for 10 days, and freeze-thawing at −80 °C to 25 °C for 3 cycles) using the QC working solution (2.5, 800 ng/mL), and six preparations were made in parallel for each concentration. The stability of compound 1 in rat plasma was evaluated by calculating the peak area ratio (compound 1/IS) in plasma sample.

PYGB = system: PYGB; design: method as in PMID 36234871, PMID 36838691, PMID 36108587; conditions: previous studies; read-out: IC50 of PYGB inhibition; cited from earlier work
[4] = male, Sprague-Dawley (SD), brain tissue, 3.2 mg/kg iv
[5] = 3.2 mg/kg iv, 0.25 h, 3.2 mg/kg

CCCC1(CCC)NC(=O)c2cc(NC(=O)c3cc4cc(Cl)ccc4[nH]3)ccc2O1 [compound 1, 5-chloro-N-(4-oxo-2,2-dipropyl-3,4-dihydro-2H-benzo[e][1,3]oxazin-6-yl)-1H-indole-2-carboxamide]
AUC(0-inf) ([1]; 0.8 mg/kg iv): 900 ± 441 ng·h/mL | AUC(0-t) ([1]; 0.8 mg/kg iv): 895 ± 440 ng·h/mL | Cmax ([1]; 0.8 mg/kg iv): 1180 ± 361 ng/mL | Vd ([1]; 0.8 mg/kg iv): 6.43 ± 3.48 L/kg | clearance ([1]; 0.8 mg/kg iv): 16.7 mL/min/kg | half-life ([1]; 0.8 mg/kg iv): 4.56 ± 2.17 h | AUC(0-inf) ([1]; 1.6 mg/kg iv): 1610 ± 371 ng·h/mL | AUC(0-t) ([1]; 1.6 mg/kg iv): 1600 ± 372 ng·h/mL | Cmax ([1]; 1.6 mg/kg iv): 2030 ± 289 ng/mL | Vd ([1]; 1.6 mg/kg iv): 7.51 ± 6.15 L/kg | clearance ([1]; 1.6 mg/kg iv): 17.3 mL/min/kg | half-life ([1]; 1.6 mg/kg iv): 4.8 ± 3.22 h | AUC(0-inf) ([1]; 3.2 mg/kg iv): 3630 ± 973 ng·h/mL | AUC(0-t) ([1]; 3.2 mg/kg iv): 3630 ± 970 ng·h/mL | Cmax ([1]; 3.2 mg/kg iv): 3710 ± 683 ng/mL | Vd ([1]; 3.2 mg/kg iv): 4.14 ± 1.23 L/kg | clearance ([1]; 3.2 mg/kg iv): 15.7 mL/min/kg | half-life ([1]; 3.2 mg/kg iv): 3.08 ± 0.58 h | linearity of pharmacokinetics ([1]; iv, dose range 0.8–3.2 mg/kg): linear pharmacokinetic characteristics; also recorded: linear pharmacokinetic profile | AUC0–∞ ([2]; brain tissue, 3.2 mg/kg iv): 668 ng·h/g | concentration at 0.25 h ([2]; male, SD, brain, iv, 3.2 mg/kg, 3.2 mg/kg iv, 0.25 h, read-out: CBrain (concentration in brain tissue)): 440 ± 19.1 ng/g | concentration at 2 h ([2]; male, SD, brain, iv, 3.2 mg/kg, 3.2 mg/kg iv, 2 h, read-out: CBrain (concentration in brain tissue)): 111 ± 23.9 ng/g | concentration at 8 h ([2]; male, SD, brain, iv, 3.2 mg/kg, 3.2 mg/kg iv, 8 h, read-out: CBrain (concentration in brain tissue)): 4.17 ± 7.22 ng/g | Kp at 0.25 h ([2]; male, SD, brain/plasma, iv, 3.2 mg/kg, 3.2 mg/kg iv, 0.25 h, read-out: CBrain/CPlasma ratio): 0.112 ± 0.0185 | Kp at 2 h ([2]; male, SD, brain/plasma, iv, 3.2 mg/kg, 3.2 mg/kg iv, 2 h, read-out: CBrain/CPlasma ratio): 0.112 ± 0.0292 | Kp at 8 h ([2]; male, SD, brain/plasma, iv, 3.2 mg/kg, 3.2 mg/kg iv, 8 h, read-out: CBrain/CPlasma ratio): 0.09 ± 0.148 | concentration at 0.25 h ([2]; male, SD, plasma, iv, 3.2 mg/kg, 3.2 mg/kg iv, 0.25 h, read-out: CPlasma (concentration in plasma)): 4020 ± 677 ng/g | concentration at 2 h ([2]; male, SD, plasma, iv, 3.2 mg/kg, 3.2 mg/kg iv, 2 h, read-out: CPlasma (concentration in plasma)): 1020 ± 275 ng/g | concentration at 8 h ([2]; male, SD, plasma, iv, 3.2 mg/kg, 3.2 mg/kg iv, 8 h, read-out: CPlasma (concentration in plasma)): 32.9 ± 14.5 ng/g | Cmax ([2]; male, SD, plasma, 3.2 mg/kg iv): 4890 ng/g | Tmax ([2]; male, SD, plasma, 3.2 mg/kg iv): 0 h | half-life ([2]; male, SD, plasma, 3.2 mg/kg iv): 1.14 h | Cmax [2, 4]: 440 ng/g | MRT [2, 4]: 1.65 h | Tmax [2, 4]: 0.25 h | half-life [2, 4]: 1.18 h | MRT ([2]; male, Sprague-Dawley (SD), plasma, 3.2 mg/kg iv): 1.47 h | AUC0–∞ ([2]; plasma, 3.2 mg/kg iv): 6659 ng·h/g | CBrain (concentration in brain tissue) [2, 5]: 440.0 ± 19.1 ng/g | CBrain/CPlasma ratio [2, 5]: 0.11 ± 0.019 | CBrain (concentration in brain tissue) ([2]; 3.2 mg/kg iv, 2 h, 3.2 mg/kg): 111.0 ± 23.9 ng/g | CBrain/CPlasma ratio ([2]; 3.2 mg/kg iv, 2 h, 3.2 mg/kg): 0.11 ± 0.029 | CBrain (concentration in brain tissue) ([2]; 3.2 mg/kg iv, 8 h, 3.2 mg/kg): 4.2 ± 7.2 ng/g | brain tissue concentration ([2]; 0.25 h (abstract)): 440 ± 19.1 ng/g | brain tissue concentration ([2]; 2 h (abstract)): 111 ± 23.9 ng/g | crossing of the blood–brain barrier ([2]; iv): able to cross the blood–brain barrier; also recorded: could quickly cross the blood–brain barrier | Stability, RE ([3]; 2.5 ng/mL, auto-sampler (24 h), 4 °C): 13.81% | Stability, RE ([3]; 2.5 ng/mL, room temperature (12 h)): 0.50% | Stability, RE ([3]; 2.5 ng/mL, storage at −20 °C (10 days)): 12.30% | Stability, RE ([3]; 2.5 ng/mL, thaw and freeze (from −80 °C to 25 °C), 3 cycles): 12.40% | Stability, RE ([3]; 800 ng/mL, auto-sampler (24 h), 4 °C): −3.20% | Stability, RE ([3]; 800 ng/mL, room temperature (12 h)): 1.03% | Stability, RE ([3]; 800 ng/mL, storage at −20 °C (10 days)): −0.65% | Stability, RE ([3]; 800 ng/mL, thaw and freeze (from −80 °C to 25 °C), 3 cycles): −3.64% | IC50 (PYGB): 90.3 nM
